Experimental data as given in ChEMBL document CHEMBL1201862, “PubChem BioAssay data set” (2004).
The source made the active and inactive calls.

Assays:
HEK293 = assay: inhibitors of LMP1-driven NF-kB reporter, dose response, cell-based, HEK293, luciferase, cherry-pick (AID 588343); assay type: functional; details: Homo sapiens
Cytochrome P450 2C19 = Cytochrome P450 2C19 (Homo sapiens, UniProt P33261); assay: Cytochrome panel assay with activity outcomes. Panel member name: p450-cyp2c19 Compounds with AC50 equal or less than 10 uM are considered active; assay type: functional; details: read-out: AC50
Cytochrome P450 3A4 = Cytochrome P450 3A4 (Homo sapiens, UniProt P08684);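 also: CYP3A4 tested as one member of a cytochrome P450 panel screen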
Cytochrome P450 1A2 = biological target: T1, Cytochrome P450 1A2 (Homo sapiens, UniProt P05177);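 also: PubChem cytochrome P450 panel assay, CYP1A2 panel member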
T1 sequence (P05177 whole entry): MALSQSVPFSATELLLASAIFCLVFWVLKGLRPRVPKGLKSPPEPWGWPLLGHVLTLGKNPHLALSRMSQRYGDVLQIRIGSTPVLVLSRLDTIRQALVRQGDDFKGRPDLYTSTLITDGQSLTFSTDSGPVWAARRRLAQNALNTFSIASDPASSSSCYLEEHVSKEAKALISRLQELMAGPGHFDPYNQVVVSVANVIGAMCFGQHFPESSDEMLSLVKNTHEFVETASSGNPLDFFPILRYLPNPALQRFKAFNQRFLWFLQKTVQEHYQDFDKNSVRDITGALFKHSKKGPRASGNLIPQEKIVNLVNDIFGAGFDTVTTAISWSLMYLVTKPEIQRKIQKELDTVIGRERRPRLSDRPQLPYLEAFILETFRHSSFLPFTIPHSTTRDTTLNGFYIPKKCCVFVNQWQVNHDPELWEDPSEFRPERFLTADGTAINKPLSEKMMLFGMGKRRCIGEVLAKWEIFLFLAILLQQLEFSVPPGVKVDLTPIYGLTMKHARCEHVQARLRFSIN

Cytochrome P450 2C9 = Cytochrome P450 2C9 (Homo sapiens, UniProt P11712)
[1] = cytotoxicity in MIN6 insulinoma cells, dose response, cytotoxicity control, cell-based, mouse insulinoma (AID 2122); assay type: functional;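 also: confirmatory high-throughput counterscreen run to flag cytotoxic compounds; mouse MIN-6 beta cells carrying an insulin promoter eGFP reporter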
[2] = insulin promoter down-regulators in MIN6 cells, imaging, high-content screening, mouse beta cells (AID 1628); assay type: functional
[3] = biological target: T2, Corticotropin-releasing factor receptor 2/Corticotropin-releasing factor-binding protein (Homo sapiens, UniProt P24387+Q13324); assay: activators of CRF receptor 2 with binding protein – uHTS hits, confirmation (AID 602473); assay type: functional; details: read-out: EC50_Mean
T2 sequence (Q13324 whole entry): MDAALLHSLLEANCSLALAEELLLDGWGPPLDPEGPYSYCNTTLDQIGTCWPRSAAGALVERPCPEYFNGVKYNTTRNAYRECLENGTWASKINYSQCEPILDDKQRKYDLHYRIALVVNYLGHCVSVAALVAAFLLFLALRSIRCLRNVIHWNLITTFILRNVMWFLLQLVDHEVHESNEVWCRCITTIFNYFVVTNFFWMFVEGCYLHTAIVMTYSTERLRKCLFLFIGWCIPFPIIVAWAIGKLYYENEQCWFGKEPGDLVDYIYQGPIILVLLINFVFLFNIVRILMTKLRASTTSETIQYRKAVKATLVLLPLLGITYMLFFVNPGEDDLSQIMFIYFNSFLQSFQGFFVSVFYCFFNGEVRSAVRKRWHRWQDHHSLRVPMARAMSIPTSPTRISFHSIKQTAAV
T2 sequence (P24387 whole entry): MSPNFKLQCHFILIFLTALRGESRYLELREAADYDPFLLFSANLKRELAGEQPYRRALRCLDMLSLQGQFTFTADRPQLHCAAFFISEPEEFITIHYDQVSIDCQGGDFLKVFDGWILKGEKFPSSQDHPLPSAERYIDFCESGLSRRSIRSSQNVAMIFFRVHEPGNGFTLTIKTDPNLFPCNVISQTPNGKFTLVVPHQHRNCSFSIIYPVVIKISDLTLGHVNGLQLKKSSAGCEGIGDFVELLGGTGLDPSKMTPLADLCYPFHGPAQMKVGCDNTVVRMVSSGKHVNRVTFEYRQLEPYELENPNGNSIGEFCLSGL

[4] = Shn3 3'UTR reporter inhibitors, dose response, cell-based, Clone20 osteoblasts, firefly luciferase, cherry-picked (AID 624132); assay type: functional;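 also: firefly luciferase luminescence from reporter carrying the Shn3 3'UTR in osteoblasts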
[5] = control 3'UTR Renilla luciferase suppression, dose response, counter-screen for Shn3 inhibitor project, cell-based, Clone20-Shn3RL, cherry-picked (AID 624133); assay type: functional
[6] = HepG2 cell cytotoxicity, dose response, cytotoxicity control for Shn3 inhibitor project, CellTiter-Glo, cherry-picked (AID 624134); assay type: functional, cell-based
[7] = biological target: DNA dC->dU-editing enzyme APOBEC-3G (Homo sapiens, UniProt Q9HC16); assay type: functional;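 also: Dose-response counterscreen measuring inhibition of APOBEC3G DNA deaminase activity, run while confirming APOBEC3A inhibitors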
Streptococcus = assay: Group A Streptococcus viability loss, dose response, counter-screen for streptokinase expression inhibitor project, luminescence, BacTiterGlo (AID 1915); assay type: functional, organism-based;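 also: potency for reduction of bacterial viability or growth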
[8] = biological target: DNA dC->dU-editing enzyme APOBEC-3A (Homo sapiens, UniProt P31941); assay: Dose Response confirmation of small molecule APOBEC3A DNA Deaminase Inhibitors via a fluorescence-based single-stranded DNA deaminase assay. [Related pubchem assays (depositor defined):AID493011, AID493024]; assay type: functional
Streptokinase A = biological target: T3, Streptokinase A (Streptococcus pyogenes serotype M1, UniProt P10520); assay: S. pyogenes streptokinase expression inhibitors, potency, dose response, plasminogen activation absorbance, OD405 (AID 1914); assay type: functional, Streptococcus pyogenes M1 GAS;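 also: secreted streptokinase activity via plasminogen activation per viability signal from cell pellet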
T3 sequence (P10520 whole entry): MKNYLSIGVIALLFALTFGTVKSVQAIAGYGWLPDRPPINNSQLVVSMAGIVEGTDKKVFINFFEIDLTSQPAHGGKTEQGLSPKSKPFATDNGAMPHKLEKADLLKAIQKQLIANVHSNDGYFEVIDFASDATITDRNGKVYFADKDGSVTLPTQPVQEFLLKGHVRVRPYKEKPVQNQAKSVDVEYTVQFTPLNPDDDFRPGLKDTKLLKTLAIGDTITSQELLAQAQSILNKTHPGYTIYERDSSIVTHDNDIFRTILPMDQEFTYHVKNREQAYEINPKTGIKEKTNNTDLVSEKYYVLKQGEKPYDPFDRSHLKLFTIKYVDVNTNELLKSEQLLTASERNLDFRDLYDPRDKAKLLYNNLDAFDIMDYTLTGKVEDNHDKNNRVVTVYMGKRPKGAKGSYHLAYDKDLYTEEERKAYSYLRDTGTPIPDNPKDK

[9] = test system: Streptococcus sp. 'group A'; assay: growth inhibition of control SK(-) GAS strain, dose response, counter-screen for streptokinase expression inhibitor project, luminescence, kanamycin, BacTiterGlo, confirmation (AID 1900); assay type: functional, organism-based
[10] = biological target: 5-hydroxytryptamine receptor 2A (Mus musculus, UniProt P35363); assay type: functional, cell-based;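 also: CHO-K1 cells with tagged receptor and beta-arrestin; agonist potency measured as compound-induced activation of the receptor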
Mu-type opioid receptor = Mu-type opioid receptor (Homo sapiens, UniProt P35372); assay type: functional, cell-based;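 also: U2OS cells with beta-arrestin recruitment to OPRM1 by beta-gal complementation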
[11] = biological target: T4, Methionyl-tRNA synthetase, putative (Trypanosoma brucei brucei, UniProt Q38C91); assay type: functional, Trypanosoma brucei brucei strain 927/4 GUTat10.1
T4 sequence (Q38C91 whole entry): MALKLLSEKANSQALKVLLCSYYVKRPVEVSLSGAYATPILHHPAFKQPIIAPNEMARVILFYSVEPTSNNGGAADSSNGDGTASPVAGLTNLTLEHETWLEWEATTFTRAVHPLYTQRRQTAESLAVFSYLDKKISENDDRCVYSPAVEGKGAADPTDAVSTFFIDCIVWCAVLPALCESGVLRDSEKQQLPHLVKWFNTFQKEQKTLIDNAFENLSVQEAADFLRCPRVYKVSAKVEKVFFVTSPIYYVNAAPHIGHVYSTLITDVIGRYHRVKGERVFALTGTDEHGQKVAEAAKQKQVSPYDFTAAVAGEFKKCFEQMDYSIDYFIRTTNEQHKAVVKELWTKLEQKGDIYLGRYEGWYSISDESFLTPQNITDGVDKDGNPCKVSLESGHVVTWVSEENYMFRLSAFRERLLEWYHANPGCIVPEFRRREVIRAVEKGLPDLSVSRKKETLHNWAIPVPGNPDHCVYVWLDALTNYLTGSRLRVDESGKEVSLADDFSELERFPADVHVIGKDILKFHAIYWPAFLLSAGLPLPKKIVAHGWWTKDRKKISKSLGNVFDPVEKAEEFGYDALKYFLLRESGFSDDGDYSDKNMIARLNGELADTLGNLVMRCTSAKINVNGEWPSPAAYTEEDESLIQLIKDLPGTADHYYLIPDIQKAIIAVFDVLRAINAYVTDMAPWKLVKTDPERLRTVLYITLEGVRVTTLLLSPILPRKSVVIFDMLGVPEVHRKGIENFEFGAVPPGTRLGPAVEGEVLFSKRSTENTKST

[12] = biological target: T5, Calpain-2 catalytic subunit (Sus scrofa, UniProt P43367); assay: pig calpain II inhibitor potency, dose response, biochemical, fluorogenic peptide substrate (AID 1420); assay type: functional
T5 sequence (P43367 whole entry): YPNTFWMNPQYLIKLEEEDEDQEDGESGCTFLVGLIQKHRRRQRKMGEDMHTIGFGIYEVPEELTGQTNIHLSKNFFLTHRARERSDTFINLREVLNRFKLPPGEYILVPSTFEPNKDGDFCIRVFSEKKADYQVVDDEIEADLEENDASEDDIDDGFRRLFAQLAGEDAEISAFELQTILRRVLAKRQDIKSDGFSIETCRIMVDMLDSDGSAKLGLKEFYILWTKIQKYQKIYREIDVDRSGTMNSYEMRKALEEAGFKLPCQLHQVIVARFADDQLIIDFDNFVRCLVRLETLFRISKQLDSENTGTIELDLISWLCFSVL

[13] = Counterscreen for inhibitors of Trypanosoma brucei methionyl tRNA synthetase (MetRS): Luminescence-based cell-based high throughput dose response assay to identify compounds that are cytotoxic to Jurkat human T lymphocyte cells.; assay type: functional

Sequence of Cytochrome P450 3A4 (P08684 whole entry): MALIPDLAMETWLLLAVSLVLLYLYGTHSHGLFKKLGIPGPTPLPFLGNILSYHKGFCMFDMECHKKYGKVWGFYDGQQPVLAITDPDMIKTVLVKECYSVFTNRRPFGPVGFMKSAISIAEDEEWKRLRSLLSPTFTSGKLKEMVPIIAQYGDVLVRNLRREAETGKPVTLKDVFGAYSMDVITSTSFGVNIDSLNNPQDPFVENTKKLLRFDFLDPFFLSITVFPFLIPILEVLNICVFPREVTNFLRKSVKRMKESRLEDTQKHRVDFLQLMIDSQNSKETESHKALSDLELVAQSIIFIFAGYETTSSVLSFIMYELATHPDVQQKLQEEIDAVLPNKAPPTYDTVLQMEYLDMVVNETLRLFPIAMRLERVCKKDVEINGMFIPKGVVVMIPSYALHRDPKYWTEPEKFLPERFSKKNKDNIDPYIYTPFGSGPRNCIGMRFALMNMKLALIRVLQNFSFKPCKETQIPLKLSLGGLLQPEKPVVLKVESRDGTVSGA
Sequence of DNA dC->dU-editing enzyme APOBEC-3G (Q9HC16 whole entry): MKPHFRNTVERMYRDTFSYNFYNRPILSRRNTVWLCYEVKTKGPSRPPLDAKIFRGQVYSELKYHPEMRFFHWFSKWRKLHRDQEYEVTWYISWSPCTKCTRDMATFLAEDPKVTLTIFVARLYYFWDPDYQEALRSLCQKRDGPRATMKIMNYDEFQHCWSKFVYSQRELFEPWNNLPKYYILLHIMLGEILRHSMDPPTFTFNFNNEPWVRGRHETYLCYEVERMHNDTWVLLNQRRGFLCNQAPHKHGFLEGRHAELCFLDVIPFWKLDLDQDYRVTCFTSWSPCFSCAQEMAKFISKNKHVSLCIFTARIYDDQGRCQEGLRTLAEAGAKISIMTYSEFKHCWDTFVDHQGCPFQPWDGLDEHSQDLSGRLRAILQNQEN
Sequence of DNA dC->dU-editing enzyme APOBEC-3A (P31941 whole entry): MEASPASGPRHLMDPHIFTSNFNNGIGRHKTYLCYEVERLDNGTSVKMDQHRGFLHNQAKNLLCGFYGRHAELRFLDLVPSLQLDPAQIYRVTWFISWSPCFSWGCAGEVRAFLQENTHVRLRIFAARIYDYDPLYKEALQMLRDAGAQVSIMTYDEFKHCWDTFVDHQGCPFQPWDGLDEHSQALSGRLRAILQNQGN
Sequence of Mu-type opioid receptor (P35372 whole entry): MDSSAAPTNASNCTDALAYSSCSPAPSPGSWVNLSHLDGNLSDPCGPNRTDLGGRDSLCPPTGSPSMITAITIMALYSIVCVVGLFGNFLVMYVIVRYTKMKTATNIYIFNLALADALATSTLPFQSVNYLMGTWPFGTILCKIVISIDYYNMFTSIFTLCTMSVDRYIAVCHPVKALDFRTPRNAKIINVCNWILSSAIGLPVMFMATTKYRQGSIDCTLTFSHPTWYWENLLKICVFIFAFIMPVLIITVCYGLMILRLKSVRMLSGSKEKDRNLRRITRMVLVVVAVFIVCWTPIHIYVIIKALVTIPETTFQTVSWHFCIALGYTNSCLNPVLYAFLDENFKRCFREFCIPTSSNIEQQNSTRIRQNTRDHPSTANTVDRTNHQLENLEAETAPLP
Sequence of Cytochrome P450 2C9 (P11712 whole entry): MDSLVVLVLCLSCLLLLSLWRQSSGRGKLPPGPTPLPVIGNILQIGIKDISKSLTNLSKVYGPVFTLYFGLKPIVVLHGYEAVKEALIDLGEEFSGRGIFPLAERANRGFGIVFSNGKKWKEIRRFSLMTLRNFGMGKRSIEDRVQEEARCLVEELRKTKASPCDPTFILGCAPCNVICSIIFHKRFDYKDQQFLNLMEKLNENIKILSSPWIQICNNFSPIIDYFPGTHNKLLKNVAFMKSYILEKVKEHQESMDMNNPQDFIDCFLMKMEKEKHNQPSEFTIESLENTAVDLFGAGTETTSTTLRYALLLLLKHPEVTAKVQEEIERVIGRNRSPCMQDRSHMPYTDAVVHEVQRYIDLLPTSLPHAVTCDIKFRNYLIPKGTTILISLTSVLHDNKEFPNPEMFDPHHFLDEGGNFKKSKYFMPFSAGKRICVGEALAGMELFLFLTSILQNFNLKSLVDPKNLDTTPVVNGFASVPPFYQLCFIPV
Sequence of 5-hydroxytryptamine receptor 2A (P35363 whole entry): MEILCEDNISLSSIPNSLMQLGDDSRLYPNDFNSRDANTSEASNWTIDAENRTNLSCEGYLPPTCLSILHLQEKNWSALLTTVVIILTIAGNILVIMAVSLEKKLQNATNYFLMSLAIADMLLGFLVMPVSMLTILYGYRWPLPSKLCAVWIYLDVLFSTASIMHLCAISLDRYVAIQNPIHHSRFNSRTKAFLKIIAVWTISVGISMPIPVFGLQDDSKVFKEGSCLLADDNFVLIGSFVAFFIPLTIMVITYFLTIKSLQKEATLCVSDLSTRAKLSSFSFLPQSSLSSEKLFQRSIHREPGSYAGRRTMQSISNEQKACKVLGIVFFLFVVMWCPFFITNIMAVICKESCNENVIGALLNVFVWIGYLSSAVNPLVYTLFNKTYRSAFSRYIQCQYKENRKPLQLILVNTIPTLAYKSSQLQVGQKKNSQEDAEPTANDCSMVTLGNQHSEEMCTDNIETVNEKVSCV
Sequence of Cytochrome P450 2C19 (P33261 whole entry): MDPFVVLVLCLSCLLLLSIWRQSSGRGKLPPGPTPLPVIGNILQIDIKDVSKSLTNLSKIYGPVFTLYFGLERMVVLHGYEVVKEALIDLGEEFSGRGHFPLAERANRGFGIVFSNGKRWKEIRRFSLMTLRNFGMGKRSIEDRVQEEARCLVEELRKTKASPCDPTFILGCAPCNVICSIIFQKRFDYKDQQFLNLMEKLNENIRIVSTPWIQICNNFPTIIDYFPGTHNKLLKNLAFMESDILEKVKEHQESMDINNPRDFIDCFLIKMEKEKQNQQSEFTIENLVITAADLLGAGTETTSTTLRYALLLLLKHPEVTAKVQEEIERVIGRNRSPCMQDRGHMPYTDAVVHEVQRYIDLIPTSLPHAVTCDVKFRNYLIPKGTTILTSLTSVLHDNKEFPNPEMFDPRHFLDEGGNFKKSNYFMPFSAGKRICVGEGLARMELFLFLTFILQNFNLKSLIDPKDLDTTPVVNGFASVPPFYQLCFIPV

Cc1cc(C(=O)CN2C(=O)c3ccccc3C2=O)c(C)n1Cc1cccs1
AC50 (HEK293): 4.41 µM (active)

CC(C)(C)C(=O)N1CCN(c2ccc([N+](=O)[O-])c(NCC3CCCO3)c2)CC1 (configuration not stated)
AC50 (Cytochrome P450 2C19): 25.1 µM (inconclusive) | AC50 (Cytochrome P450 3A4): inconclusive | AC50 (Cytochrome P450 1A2): 14.1 µM (inconclusive)

O=[N+]([O-])c1cccnc1N1CCOCC1
AC50 (Cytochrome P450 3A4): inconclusive | AC50 (Cytochrome P450 1A2): 28.2 µM (inconclusive) | AC50 (Cytochrome P450 2C9): 12.6 µM (inconclusive)

C=CCn1c(-c2ccc(OC)cc2)nc2ccccc21
IC50 [1]: 4.36 µM (active) | IC50 [2]: 4.04 µM (active) | EC50 [3]: > 53 µM (inactive)

C=CCn1c(NCCc2ccccc2)nc2c1c(=O)n(C)c(=O)n2C
AC50 [4]: 1.83 µM (active) | IC50 [1]: 1.86 µM (active) | AC50 [5]: 7.83 µM (active) | AC50 [6]: 57.2 µM (active) | IC50 [2]: 2.56 µM (active)

CCOC(=O)c1cnc2cc(Cl)c(OC)cc2c1NCC1CCCO1 (configuration not stated)
IC50 [1]: 15 µM (inactive) | IC50 [2]: 2.7 µM (active)

O=C(c1cccc(F)c1)N1CCC2(CC1)CN(c1ccccc1)C2
AC50 (Cytochrome P450 3A4): inconclusive

O=C(c1cnccn1)N1CCC2(CC1)CN(C(c1ccccc1)c1ccccc1)C2
AC50 (Cytochrome P450 3A4): inconclusive | AC50 (Cytochrome P450 1A2): 25.1 µM (inconclusive)

O=C(c1ccncc1)N1CCC2(CC1)CN(C(c1ccccc1)c1ccccc1)C2
AC50 (Cytochrome P450 3A4): inconclusive | AC50 (Cytochrome P450 1A2): 15.8 µM (inconclusive)

CC(=O)c1cccc(OC(=O)c2ccc3c(=O)n4c(nc3c2)CCC4)c1
IC50 [7]: 5.35 µM (active) | EC50 (Streptococcus): 14.4 µM (active) | IC50 [8]: 6.27 µM (active) | EC50 (Streptokinase A): > 150 µM (not active) | EC50 [9]: 12.6 µM (active)

CCC(c1nnnn1-c1ccc2c(c1)OCCO2)N1CCN(C/C=C/c2ccccc2)CC1 (configuration not stated)
EC50 [10]: 76.2 µM (inactive) | EC50 (Mu-type opioid receptor): 92.6 µM (inactive)

CO/N=C(\c1nonc1N)N1CCN(c2ccc(Cl)cc2[N+](=O)[O-])CC1
IC50 [11]: 119 µM (inactive) | IC50 [12]: > 50 µM (not active) | IC50 [13]: 83.3 µM (inactive)
